# Results reported in PubChem BioAssay (NCI).
#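 Step 1: Grow cells in 96-well plates. Step 2: Expose to compound for 48 hours at 5 concentrations. Step 3: Interpolate endpoints linearly; if unreached, use highest concentration. GI50: concentration for 50% inhibition of growth. TGI is the concentration that stops growth completely.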
# Assays:
# Test in all cases: NCI-60 cell line screen, 48 h
# NCI-H23 lung = test system: NCI-H23 lung
# XF 498 CNS = test system: XF 498 CNS
# HOP-18 NSCLC = test system: HOP-18 NSCLC
# SNB-75 CNS = test system: SNB-75 CNS
# SR leukemia = test system: SR leukemia
# SF-268 CNS = test system: SF-268 CNS
# ACHN renal = test system: ACHN renal
# MOLT-4 leukemia = test system: MOLT-4 leukemia
# HCC-2998 colon = test system: HCC-2998 colon
# M14 melanoma = test system: M14 melanoma
# 786-0 renal = test system: 786-0 renal
# COLO 205 colon = test system: COLO 205 colon
# KM20L2 colon = test system: KM20L2 colon
# UACC-62 melanoma = test system: UACC-62 melanoma
# HOP-92 NSCLC = test system: HOP-92 NSCLC
# TK-10 renal = test system: TK-10 renal
# SN12C renal = test system: SN12C renal
# HT29 colon = test system: HT29 colon
# U251 CNS = test system: U251 CNS
# HCT-15 colon = test system: HCT-15 colon
# RXF 393 renal = test system: RXF 393 renal
# NCI-H226 lung = test system: NCI-H226 lung
# EKVX NSCLC = test system: EKVX NSCLC
# SK-OV-3 ovarian = test system: SK-OV-3 ovarian
# SW-620 colon = test system: SW-620 colon
# SF-539 CNS = test system: SF-539 CNS
# UO-31 renal = test system: UO-31 renal
# K-562 leukemia = test system: K-562 leukemia
# HOP-62 NSCLC = test system: HOP-62 NSCLC
# DMS 273 small cell lung = test system: DMS 273 small cell lung
# OVCAR-3 ovarian = test system: OVCAR-3 ovarian
# RPMI-8226 leukemia = test system: RPMI-8226 leukemia
# SF-295 CNS = test system: SF-295 CNS
# A549 NSCLC = test system: A549 NSCLC
# A498 renal = test system: A498 renal
# SK-MEL-2 melanoma = test system: SK-MEL-2 melanoma
# NCI-H460 lung = test system: NCI-H460 lung
# SNB-78 CNS = test system: SNB-78 CNS
# OVCAR-8 ovarian = test system: OVCAR-8 ovarian
# OVCAR-5 ovarian = test system: OVCAR-5 ovarian
# IGROV1 ovarian = test system: IGROV1 ovarian
# RXF-631 renal = test system: RXF-631 renal
# CAKI-1 renal = test system: CAKI-1 renal
# UACC-257 melanoma = test system: UACC-257 melanoma
# SK-MEL-5 melanoma = test system: SK-MEL-5 melanoma
# MALME-3M melanoma = test system: MALME-3M melanoma
# SNB-19 CNS = test system: SNB-19 CNS
# SK-MEL-28 melanoma = test system: SK-MEL-28 melanoma
# HL-60(TB) leukemia = test system: HL-60(TB) leukemia
# LXFL 529 NSCLC = test system: LXFL 529 NSCLC
# CCRF-CEM leukemia = test system: CCRF-CEM leukemia
# DMS 114 small cell lung = test system: DMS 114 small cell lung
# KM12 colon = test system: KM12 colon
# NCI-H522 lung = test system: NCI-H522 lung
# DLD-1 colon = test system: DLD-1 colon
# HCT-116 colon = test system: HCT-116 colon
# LOX IMVI melanoma = test system: LOX IMVI melanoma
# OVCAR-4 ovarian = test system: OVCAR-4 ovarian
# M19-MEL melanoma = test system: M19-MEL melanoma
smiles,measurement,setting,value
N#CC1=C(Cl)NC(Cl)=C(C#N)C1c1ccc(Cl)cc1,TGI,NCI-H23 lung,32.8 µM
same,TGI,XF 498 CNS,27.4 µM
same,TGI,HOP-18 NSCLC,33.6 µM
same,TGI,SNB-75 CNS,28.3 µM
same,TGI,SR leukemia,44.1 µM
same,TGI,SF-268 CNS,33 µM
same,TGI,ACHN renal,34.2 µM
same,TGI,MOLT-4 leukemia,39.3 µM
same,TGI,HCC-2998 colon,33.2 µM
same,TGI,M14 melanoma,30.5 µM
same,TGI,786-0 renal,29.2 µM
same,TGI,COLO 205 colon,30.3 µM
same,TGI,KM20L2 colon,39.3 µM
same,TGI,UACC-62 melanoma,30.5 µM
same,TGI,HOP-92 NSCLC,30.5 µM
same,TGI,TK-10 renal,32.5 µM
same,TGI,SN12C renal,30.9 µM
same,TGI,HT29 colon,30.1 µM
same,TGI,U251 CNS,29.8 µM
same,TGI,HCT-15 colon,29 µM
same,TGI,RXF 393 renal,32.9 µM
same,TGI,NCI-H226 lung,44.7 µM
same,TGI,EKVX NSCLC,39.4 µM
same,TGI,SK-OV-3 ovarian,31.7 µM
same,TGI,SW-620 colon,26.3 µM
same,TGI,SF-539 CNS,33.2 µM
same,TGI,UO-31 renal,30.8 µM
same,TGI,K-562 leukemia,28.5 µM
same,TGI,HOP-62 NSCLC,33.1 µM
same,TGI,DMS 273 small cell lung,31 µM
same,TGI,OVCAR-3 ovarian,27 µM
same,TGI,RPMI-8226 leukemia,37.5 µM
same,TGI,SF-295 CNS,53.9 µM
same,TGI,A549 NSCLC,37.1 µM
same,TGI,A498 renal,81.3 µM
same,TGI,SK-MEL-2 melanoma,27.5 µM
same,TGI,NCI-H460 lung,31.5 µM
same,TGI,SNB-78 CNS,72.5 µM
same,TGI,OVCAR-8 ovarian,29.7 µM
same,TGI,OVCAR-5 ovarian,> 100 µM
same,TGI,IGROV1 ovarian,32.9 µM
same,TGI,RXF-631 renal,29.5 µM
same,TGI,CAKI-1 renal,43.9 µM
same,TGI,UACC-257 melanoma,34.7 µM
same,TGI,SK-MEL-5 melanoma,30.7 µM
same,TGI,MALME-3M melanoma,38.7 µM
same,TGI,SNB-19 CNS,31 µM
same,TGI,SK-MEL-28 melanoma,41.4 µM
same,TGI,HL-60(TB) leukemia,45.4 µM
same,TGI,LXFL 529 NSCLC,29.9 µM
same,TGI,CCRF-CEM leukemia,65.8 µM
same,TGI,DMS 114 small cell lung,28.8 µM
same,TGI,KM12 colon,33 µM
same,TGI,NCI-H522 lung,25.8 µM
same,TGI,DLD-1 colon,32 µM
same,TGI,HCT-116 colon,34.4 µM
same,TGI,LOX IMVI melanoma,29.6 µM
CCC[CH2][Sn]1([CH2]CCC)[O]CC(c2ccccn2)C[O]1,GI50,NCI-H23 lung,17.1 µM
same,TGI,NCI-H23 lung,35.3 µM
same,GI50,XF 498 CNS,17.9 µM
same,TGI,XF 498 CNS,32.7 µM
same,GI50,SNB-75 CNS,22.5 µM
same,TGI,SNB-75 CNS,58 µM
same,GI50,SR leukemia,12.4 µM
same,TGI,SR leukemia,41.7 µM
same,GI50,ACHN renal,19.8 µM
same,TGI,ACHN renal,34 µM
same,GI50,MOLT-4 leukemia,17.2 µM
same,TGI,MOLT-4 leukemia,56 µM
same,GI50,HCC-2998 colon,19.4 µM
same,TGI,HCC-2998 colon,34.3 µM
same,GI50,M14 melanoma,16.2 µM
same,TGI,M14 melanoma,30.7 µM
same,GI50,786-0 renal,15.6 µM
same,TGI,786-0 renal,29.3 µM
same,GI50,COLO 205 colon,17.5 µM
same,TGI,COLO 205 colon,31.7 µM
same,GI50,KM20L2 colon,29.6 µM
same,TGI,KM20L2 colon,73.3 µM
same,GI50,UACC-62 melanoma,14.1 µM
same,TGI,UACC-62 melanoma,28 µM
same,GI50,HOP-92 NSCLC,18.2 µM
same,TGI,HOP-92 NSCLC,36.6 µM
same,GI50,TK-10 renal,18.9 µM
same,TGI,TK-10 renal,33.3 µM
same,GI50,SN12C renal,19.8 µM
same,TGI,SN12C renal,35.3 µM
same,GI50,HT29 colon,20.5 µM
same,TGI,HT29 colon,38.3 µM
same,GI50,U251 CNS,15.9 µM
same,TGI,U251 CNS,29.6 µM
same,GI50,HCT-15 colon,18.2 µM
same,TGI,HCT-15 colon,32.6 µM
same,GI50,RXF 393 renal,19.5 µM
same,TGI,RXF 393 renal,36.7 µM
same,GI50,NCI-H226 lung,31 µM
same,TGI,NCI-H226 lung,> 100 µM
same,GI50,EKVX NSCLC,15.5 µM
same,TGI,EKVX NSCLC,36.2 µM
same,GI50,SK-OV-3 ovarian,24.4 µM
same,TGI,SK-OV-3 ovarian,84.8 µM
same,GI50,SW-620 colon,15.3 µM
same,TGI,SW-620 colon,29.5 µM
same,GI50,OVCAR-4 ovarian,20.7 µM
same,TGI,OVCAR-4 ovarian,37.9 µM
same,GI50,SF-539 CNS,18.6 µM
same,TGI,SF-539 CNS,33.1 µM
same,GI50,UO-31 renal,19.4 µM
same,TGI,UO-31 renal,35.5 µM
same,GI50,K-562 leukemia,14.6 µM
same,TGI,K-562 leukemia,65.8 µM
same,GI50,HOP-62 NSCLC,23.3 µM
same,TGI,HOP-62 NSCLC,68.6 µM
same,GI50,DMS 273 small cell lung,15.7 µM
same,TGI,DMS 273 small cell lung,29.6 µM
same,GI50,OVCAR-3 ovarian,16.7 µM
same,TGI,OVCAR-3 ovarian,30.5 µM
same,GI50,RPMI-8226 leukemia,7.2 µM
same,TGI,RPMI-8226 leukemia,34.5 µM
same,GI50,SF-295 CNS,20.3 µM
same,TGI,SF-295 CNS,38.1 µM
same,GI50,A549 NSCLC,32.1 µM
same,TGI,A549 NSCLC,> 100 µM
same,GI50,A498 renal,26.7 µM
same,TGI,A498 renal,50.7 µM
same,GI50,SK-MEL-2 melanoma,14 µM
same,TGI,SK-MEL-2 melanoma,28.5 µM
same,GI50,NCI-H460 lung,33.5 µM
same,TGI,NCI-H460 lung,> 100 µM
same,GI50,M19-MEL melanoma,14.8 µM
same,TGI,M19-MEL melanoma,29.2 µM
same,GI50,SNB-78 CNS,19.9 µM
same,TGI,SNB-78 CNS,61.3 µM
same,GI50,OVCAR-8 ovarian,17.9 µM
same,TGI,OVCAR-8 ovarian,36.8 µM
same,GI50,OVCAR-5 ovarian,21.3 µM
same,TGI,OVCAR-5 ovarian,42.6 µM
same,GI50,IGROV1 ovarian,20.2 µM
same,TGI,IGROV1 ovarian,36.6 µM
same,GI50,RXF-631 renal,15.4 µM
same,TGI,RXF-631 renal,29.5 µM
same,GI50,CAKI-1 renal,7.39 µM
same,TGI,CAKI-1 renal,22.1 µM
same,GI50,UACC-257 melanoma,17.3 µM
same,TGI,UACC-257 melanoma,32.4 µM
same,GI50,SK-MEL-5 melanoma,17 µM
same,TGI,SK-MEL-5 melanoma,34.4 µM
same,GI50,MALME-3M melanoma,7.93 µM
same,TGI,MALME-3M melanoma,19.8 µM
same,GI50,SNB-19 CNS,22.1 µM
same,TGI,SNB-19 CNS,45 µM
same,GI50,SK-MEL-28 melanoma,15.4 µM
same,TGI,SK-MEL-28 melanoma,29.4 µM
same,GI50,HL-60(TB) leukemia,7.65 µM
same,TGI,HL-60(TB) leukemia,29.4 µM
same,GI50,LXFL 529 NSCLC,7.96 µM
same,TGI,LXFL 529 NSCLC,20.5 µM
same,GI50,CCRF-CEM leukemia,4.13 µM
same,TGI,CCRF-CEM leukemia,34.8 µM
same,GI50,DMS 114 small cell lung,10.2 µM
same,TGI,DMS 114 small cell lung,26.7 µM
same,GI50,KM12 colon,23.2 µM
same,TGI,KM12 colon,59.4 µM
same,GI50,NCI-H522 lung,3.14 µM
same,TGI,NCI-H522 lung,11.8 µM
same,GI50,DLD-1 colon,15.3 µM
same,TGI,DLD-1 colon,29.8 µM
same,GI50,HCT-116 colon,19.3 µM
same,TGI,HCT-116 colon,33.7 µM
same,GI50,LOX IMVI melanoma,13.7 µM
same,TGI,LOX IMVI melanoma,27.7 µM
